Measurements published in ChEMBL document CHEMBL1201862, “PubChem BioAssay data set” (2004).
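Method: 48-hour compound exposure of cells in 96-well plates, five concentrations, linear interpolation of endpoints. GI50 = concentration required for 50% inhibition of growth.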 Calls of active or inactive are those of the source. Rule as the data show it: active = GI50 up to about 1.1 µM and inactive = higher.

What was measured:
Assay in all cases: NCI tumour cell line growth inhibition, 48 h
786-0 = system: 786-0
A549 = system: A549
CCRF-CEM = system: CCRF-CEM
COLO 205 = system: COLO 205
HL-60 = system: HL-60
HOP-62 = system: HOP-62
LOX IMVI = system: LOX IMVI
Malme-3M = system: Malme-3M
NCI-H226 = system: NCI-H226
OVCAR-4 = system: OVCAR-4
OVCAR-5 = system: OVCAR-5
SF-295 = system: SF-295
SF-539 = system: SF-539
SK-MEL-28 = system: SK-MEL-28
SN12C = system: SN12C
SNB-19 = system: SNB-19
UACC-257 = system: UACC-257
UACC-62 = system: UACC-62
SK-MEL-5 = system: SK-MEL-5

Measured: GI50

O=S(=O)(c1ccccc1)C(CN1CCCCC1)S(=O)(=O)c1ccccc1
inactive: 786-0 > 100 µM | A549 > 100 µM | CCRF-CEM > 100 µM | COLO 205 > 100 µM | HL-60 > 100 µM | HOP-62 > 100 µM | LOX IMVI > 100 µM | Malme-3M > 100 µM | NCI-H226 > 100 µM | OVCAR-4 > 100 µM | OVCAR-5 > 100 µM | SF-295 > 100 µM | SF-539 > 100 µM | SK-MEL-28 > 100 µM | SN12C > 100 µM | SNB-19 > 100 µM | UACC-257 > 100 µM | UACC-62 > 100 µM

O=C(/C=C/c1ccccc1Cl)NC1C=Nc2ccc([N+](=O)[O-])cc2NC1 (configuration not stated)
inactive: 786-0 44.8 µM | A549 > 100 µM | CCRF-CEM 12.7 µM | COLO 205 39.5 µM | HL-60 49.2 µM | HOP-62 > 100 µM | LOX IMVI 39.4 µM | Malme-3M > 100 µM | NCI-H226 > 100 µM | OVCAR-4 78.3 µM | OVCAR-5 > 100 µM | SF-295 > 100 µM | SF-539 > 100 µM | SK-MEL-28 > 100 µM | SK-MEL-5 > 100 µM | SN12C 98.6 µM | SNB-19 > 100 µM | UACC-257 89.3 µM | UACC-62 > 100 µM

COC(=O)C(Cc1nc2ccccc2nc1O)C(=O)C(=O)Nc1ccc([N+](=O)[O-])cc1[N+](=O)[O-] (configuration not stated)
inactive: 786-0 16.5 µM | A549 34.1 µM | CCRF-CEM 13.2 µM | COLO 205 16.4 µM | HL-60 21.8 µM | HOP-62 24.2 µM | LOX IMVI 20.9 µM | Malme-3M 19.3 µM | NCI-H226 14.5 µM | OVCAR-4 20.1 µM | OVCAR-5 27.2 µM | SF-295 24.9 µM | SF-539 20.6 µM | SK-MEL-28 22.6 µM | SK-MEL-5 18.3 µM | SN12C 19.8 µM | SNB-19 29.7 µM | UACC-257 19.7 µM | UACC-62 18.7 µM

CCN(C(=N)C#N)c1ccccc1
inactive: 786-0 > 41.9 µM | A549 > 100 µM | CCRF-CEM > 54.5 µM | COLO 205 > 95.3 µM | HL-60 > 46.9 µM | HOP-62 > 100 µM | LOX IMVI 47.2 µM | Malme-3M > 100 µM | NCI-H226 > 100 µM | OVCAR-4 > 100 µM | OVCAR-5 > 100 µM | SF-295 > 100 µM | SF-539 13.6 µM | SK-MEL-28 > 100 µM | SK-MEL-5 > 100 µM | SN12C > 100 µM | SNB-19 > 100 µM | UACC-257 > 59.2 µM | UACC-62 > 72.3 µM

O=C(CO)CC(=O)C(=O)Nc1nc([N+](=O)[O-])cs1
inactive: 786-0 > 100 µM | A549 > 100 µM | CCRF-CEM > 100 µM | COLO 205 > 100 µM | HL-60 > 100 µM | HOP-62 > 100 µM | LOX IMVI > 100 µM | Malme-3M > 100 µM | NCI-H226 > 100 µM | OVCAR-4 > 100 µM | OVCAR-5 > 100 µM | SF-295 > 100 µM | SF-539 > 100 µM | SK-MEL-28 > 100 µM | SK-MEL-5 > 100 µM | SN12C > 100 µM | SNB-19 > 100 µM | UACC-257 > 100 µM | UACC-62 > 100 µM

CCCCC(C(=O)C(=O)NC1C2CC3CC(C2)CC1C3)C(=O)C(C)C (configuration not stated)
inactive: 786-0 > 100 µM | A549 > 100 µM | CCRF-CEM > 100 µM | COLO 205 > 100 µM | HL-60 > 100 µM | HOP-62 > 100 µM | LOX IMVI > 100 µM | Malme-3M > 100 µM | NCI-H226 > 100 µM | OVCAR-4 > 100 µM | OVCAR-5 > 100 µM | SF-295 > 100 µM | SF-539 > 100 µM | SK-MEL-28 > 100 µM | SK-MEL-5 > 100 µM | SN12C > 100 µM | SNB-19 > 100 µM | UACC-257 > 100 µM | UACC-62 > 100 µM

CCC1(O)C(=O)OCc2c1cc1n(c2=O)Cc2cc3cc(OC)c(OC)cc3nc2-1 (configuration not stated)
inactive: 786-0 6.28 µM | A549 33.1 µM | CCRF-CEM 2.81 µM | COLO 205 32.6 µM | HL-60 12 µM | HOP-62 2.79 µM | LOX IMVI 7.19 µM | Malme-3M > 100 µM | NCI-H226 14.8 µM | OVCAR-4 > 100 µM | OVCAR-5 > 100 µM | SF-295 10.9 µM | SF-539 5.74 µM | SK-MEL-28 > 100 µM | SK-MEL-5 17.5 µM | SN12C 5.5 µM | SNB-19 16 µM | UACC-257 > 100 µM | UACC-62 > 10 µM

CC(=O)N(O)Cc1ccccc1
inactive: 786-0 > 100 µM | A549 > 100 µM | CCRF-CEM > 100 µM | COLO 205 > 100 µM | HL-60 > 100 µM | HOP-62 > 100 µM | LOX IMVI > 100 µM | Malme-3M > 100 µM | NCI-H226 > 100 µM | OVCAR-4 > 100 µM | OVCAR-5 > 100 µM | SF-295 > 100 µM | SF-539 > 100 µM | SK-MEL-28 > 100 µM | SK-MEL-5 > 100 µM | SN12C > 100 µM | SNB-19 > 100 µM | UACC-257 > 100 µM | UACC-62 > 100 µM

Cn1c(-c2ccccc2)c/c(=N\NS(C)(=O)=O)c2cc(S(=O)(=O)O)ccc21
inactive: 786-0 > 100 µM | A549 > 100 µM | CCRF-CEM > 100 µM | COLO 205 > 100 µM | HL-60 > 100 µM | HOP-62 > 100 µM | LOX IMVI > 100 µM | Malme-3M > 100 µM | NCI-H226 > 100 µM | OVCAR-4 > 100 µM | OVCAR-5 > 100 µM | SF-295 > 100 µM | SF-539 > 100 µM | SK-MEL-28 > 100 µM | SK-MEL-5 > 100 µM | SN12C > 100 µM | SNB-19 > 100 µM | UACC-257 > 100 µM | UACC-62 > 100 µM

COc1ccccc1NC(=O)C(CC(C(=O)Nc1ccccc1OC)/C(C)=N/Nc1ccc([N+](=O)[O-])cc1[N+](=O)[O-])/C(C)=N/Nc1ccc([N+](=O)[O-])cc1[N+](=O)[O-] (configuration not stated)
inactive: 786-0 > 100 µM | A549 > 65.5 µM | CCRF-CEM 63.5 µM | COLO 205 69 µM | HL-60 41.5 µM | HOP-62 > 95.5 µM | LOX IMVI 40.2 µM | Malme-3M > 100 µM | NCI-H226 > 100 µM | OVCAR-4 > 81.3 µM | OVCAR-5 > 100 µM | SF-295 > 93.1 µM | SF-539 > 90.2 µM | SK-MEL-28 > 83.2 µM | SK-MEL-5 31.6 µM | SN12C > 100 µM | SNB-19 > 100 µM | UACC-257 > 72.3 µM | UACC-62 > 100 µM

CCOC(=O)/C(=C\NCc1ccc2c(c1)OCO2)c1nc2ccccc2[nH]1
inactive: 786-0 36.9 µM | A549 35.4 µM | CCRF-CEM 42 µM | COLO 205 32.7 µM | HL-60 48.8 µM | HOP-62 71.3 µM | LOX IMVI 42.2 µM | Malme-3M 41.7 µM | NCI-H226 > 100 µM | OVCAR-4 57.3 µM | OVCAR-5 94.8 µM | SF-295 53.5 µM | SF-539 35.4 µM | SK-MEL-28 60.7 µM | SK-MEL-5 25.8 µM | SN12C > 100 µM | SNB-19 46.9 µM | UACC-257 64.6 µM | UACC-62 26.9 µM

O=C(O)[C@@H]1CCCC[C@@H]1C(=O)N(C1CCCCC1)C1CCCCC1
inactive: 786-0 > 100 µM | A549 > 100 µM | CCRF-CEM > 100 µM | COLO 205 > 100 µM | HL-60 > 100 µM | HOP-62 > 100 µM | LOX IMVI > 100 µM | Malme-3M > 100 µM | NCI-H226 > 100 µM | OVCAR-4 > 100 µM | OVCAR-5 > 100 µM | SF-295 > 100 µM | SF-539 > 100 µM | SK-MEL-28 > 100 µM | SK-MEL-5 > 100 µM | SN12C > 100 µM | UACC-257 > 100 µM | UACC-62 > 100 µM

CCOC(=O)C(C)(C)Oc1ccc2c(=O)cc(-c3ccc(Cl)cc3)oc2c1
inactive: 786-0 > 100 µM | A549 > 100 µM | CCRF-CEM > 100 µM | COLO 205 > 100 µM | HL-60 > 100 µM | HOP-62 > 100 µM | LOX IMVI > 100 µM | Malme-3M > 100 µM | NCI-H226 > 100 µM | OVCAR-4 > 100 µM | SF-295 > 100 µM | SF-539 > 100 µM | SK-MEL-28 > 100 µM | SK-MEL-5 > 100 µM | SN12C > 100 µM | SNB-19 > 100 µM | UACC-257 > 100 µM | UACC-62 > 100 µM

Cc1nc2c(n1Cc1ccc(F)cc1)C(=O)c1ccccc1C2=O
inactive: 786-0 13.1 µM | A549 36.5 µM | CCRF-CEM 10.5 µM | COLO 205 18.9 µM | HL-60 5.48 µM | HOP-62 27.7 µM | LOX IMVI 7.18 µM | Malme-3M 8.89 µM | NCI-H226 32.5 µM | OVCAR-4 31.1 µM | SF-295 44.2 µM | SF-539 6.98 µM | SK-MEL-28 > 100 µM | SK-MEL-5 10.3 µM | SN12C 54 µM | SNB-19 > 100 µM | UACC-257 26.6 µM | UACC-62 5.25 µM
